Assay results from ChEMBL document CHEMBL1201862, “PubChem BioAssay data set” (2004).
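Assay format: 96-well plates, 48-hour exposure. Abbreviation: GI50, concentration required for 50% inhibition of growth.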 The source made the active and inactive calls. Rule as the data show it: active = GI50 up to about 1.1 µM and inactive = higher.

Key:
Experiment in all cases: NCI-60 cell line screen, 48 h
NCI-H522 = system: NCI-H522
UACC-257 = system: UACC-257
RXF 393 = system: RXF 393
ACHN = system: ACHN
COLO 205 = system: COLO 205
MOLT-4 = system: MOLT-4
OVCAR-5 = system: OVCAR-5
MDA-MB-231 = system: MDA-MB-231
U-251 = system: U-251
SF-268 = system: SF-268
RPMI-8226 = system: RPMI-8226
OVCAR-8 = system: OVCAR-8
SK-OV-3 = system: SK-OV-3
NCI-H23 = system: NCI-H23
OVCAR-4 = system: OVCAR-4
SK-MEL-5 = system: SK-MEL-5
EKVX = system: EKVX
TK-10 = system: TK-10
786-0 = system: 786-0
SNB-75 = system: SNB-75
SF-295 = system: SF-295
SW-620 = system: SW-620
KM12 = system: KM12
HCT-116 = system: HCT-116
HOP-92 = system: HOP-92
NCI/ADR-RES = system: NCI/ADR-RES
MDA-N = system: MDA-N
T47D = system: T47D
OVCAR-3 = system: OVCAR-3
HOP-62 = system: HOP-62
CAKI-1 = system: CAKI-1
BT-549 = system: BT-549
Malme-3M = system: Malme-3M
MDA-MB-435 = system: MDA-MB-435
HT-29 = system: HT-29
LOX IMVI = system: LOX IMVI
NCI-H226 = system: NCI-H226
A498 = system: A498
HCT-15 = system: HCT-15
SN12C = system: SN12C
DU-145 = system: DU-145
SF-539 = system: SF-539
IGROV-1 = system: IGROV-1
CCRF-CEM = system: CCRF-CEM
UO-31 = system: UO-31
A549 = system: A549
SR = system: SR
PC-3 = system: PC-3
UACC-62 = system: UACC-62
SK-MEL-28 = system: SK-MEL-28
K562 = system: K562
SNB-19 = system: SNB-19
HCC 2998 = system: HCC 2998
MCF7 = system: MCF7
NCI-H460 = system: NCI-H460
SK-MEL-2 = system: SK-MEL-2
HL-60 = system: HL-60
Hs-578T = system: Hs-578T
M14 = system: M14

O=C(Nc1nc2ccc([N+](=O)[O-])cc2s1)c1cc([N+](=O)[O-])ccc1Cl
GI50 (NCI-H522): 1.68 µM (inactive) | GI50 (UACC-257): 3.23 µM (inactive) | GI50 (RXF 393): 3.69 µM (inactive) | GI50 (ACHN): 3.2 µM (inactive) | GI50 (COLO 205): 1.68 µM (inactive) | GI50 (MOLT-4): 3.21 µM (inactive) | GI50 (OVCAR-5): 4.26 µM (inactive) | GI50 (MDA-MB-231): 2.55 µM (inactive) | GI50 (U-251): 2.95 µM (inactive) | GI50 (SF-268): 3.41 µM (inactive) | GI50 (RPMI-8226): 0.989 µM (active) | GI50 (OVCAR-8): 2.85 µM (inactive) | GI50 (SK-OV-3): 2.94 µM (inactive) | GI50 (NCI-H23): 2.3 µM (inactive) | GI50 (OVCAR-4): 5.27 µM (inactive) | GI50 (SK-MEL-5): 1.41 µM (inactive) | GI50 (EKVX): 2.81 µM (inactive) | GI50 (TK-10): 3.8 µM (inactive) | GI50 (786-0): 2.75 µM (inactive) | GI50 (SNB-75): 2.22 µM (inactive) | GI50 (SF-295): 3.4 µM (inactive) | GI50 (SW-620): 2.29 µM (inactive) | GI50 (KM12): 3.4 µM (inactive) | GI50 (HCT-116): 1.71 µM (inactive) | GI50 (HOP-92): 0.675 µM (active) | GI50 (NCI/ADR-RES): 1.91 µM (inactive) | GI50 (MDA-N): 1.48 µM (inactive) | GI50 (T47D): 3.57 µM (inactive) | GI50 (OVCAR-3): 1.59 µM (inactive) | GI50 (HOP-62): 3 µM (inactive) | GI50 (CAKI-1): 4.51 µM (inactive) | GI50 (BT-549): 2.24 µM (inactive) | GI50 (Malme-3M): 3.01 µM (inactive) | GI50 (MDA-MB-435): 4.04 µM (inactive) | GI50 (HT-29): 2.48 µM (inactive) | GI50 (LOX IMVI): 2.05 µM (inactive) | GI50 (NCI-H226): 1.31 µM (inactive) | GI50 (A498): 2.21 µM (inactive) | GI50 (HCT-15): 1.93 µM | GI50 (SN12C): 1.52 µM (inactive) | GI50 (DU-145): 3.75 µM (inactive) | GI50 (SF-539): 2.68 µM (inactive)

CCOc1ccc(/N=N/c2ccc(-c3ccc(/N=N/c4c(O)ccc5cc(S(=O)(=O)O)cc(S(=O)(=O)O)c45)cc3)cc2)cc1
GI50 (NCI-H522): 63.2 µM (inactive) | GI50 (UACC-257): > 100 µM (inactive) | GI50 (IGROV-1): > 100 µM (inactive) | GI50 (RXF 393): > 100 µM (inactive) | GI50 (CCRF-CEM): > 100 µM (inactive) | GI50 (ACHN): > 100 µM (inactive) | GI50 (COLO 205): > 100 µM (inactive) | GI50 (UO-31): > 100 µM (inactive) | GI50 (A549): > 100 µM (inactive) | GI50 (SR): 66.2 µM (inactive) | GI50 (MOLT-4): > 100 µM (inactive) | GI50 (PC-3): > 100 µM (inactive) | GI50 (OVCAR-5): > 100 µM (inactive) | GI50 (MDA-MB-231): > 100 µM (inactive) | GI50 (U-251): > 100 µM (inactive) | GI50 (SF-268): > 100 µM (inactive) | GI50 (RPMI-8226): > 100 µM (inactive) | GI50 (UACC-62): > 100 µM (inactive) | GI50 (OVCAR-8): > 100 µM (inactive) | GI50 (SK-MEL-28): > 100 µM (inactive) | GI50 (SK-OV-3): > 100 µM (inactive) | GI50 (NCI-H23): > 100 µM (inactive) | GI50 (OVCAR-4): > 100 µM (inactive) | GI50 (K562): > 100 µM (inactive) | GI50 (SK-MEL-5): > 100 µM (inactive) | GI50 (EKVX): > 100 µM (inactive) | GI50 (TK-10): > 100 µM (inactive) | GI50 (786-0): > 100 µM (inactive) | GI50 (SF-295): > 100 µM (inactive) | GI50 (SNB-19): > 100 µM (inactive) | GI50 (SW-620): > 100 µM (inactive) | GI50 (HCC 2998): > 100 µM (inactive) | GI50 (KM12): > 100 µM (inactive) | GI50 (HCT-116): > 100 µM (inactive) | GI50 (HOP-92): > 100 µM (inactive) | GI50 (NCI/ADR-RES): > 100 µM (inactive) | GI50 (MCF7): > 100 µM (inactive) | GI50 (OVCAR-3): > 100 µM (inactive) | GI50 (HOP-62): > 100 µM (inactive) | GI50 (NCI-H460): > 100 µM (inactive) | GI50 (CAKI-1): > 100 µM (inactive) | GI50 (BT-549): > 100 µM (inactive) | GI50 (Malme-3M): 18.5 µM (inactive) | GI50 (MDA-MB-435): > 100 µM (inactive) | GI50 (HT-29): > 100 µM (inactive) | GI50 (NCI-H226): > 100 µM (inactive) | GI50 (SK-MEL-2): > 100 µM (inactive) | GI50 (HL-60): > 100 µM (inactive) | GI50 (Hs-578T): > 100 µM (inactive) | GI50 (M14): > 100 µM (inactive) | GI50 (HCT-15): 86.5 µM | GI50 (SF-539): > 100 µM (inactive)
